In patent publication US20030129672A1, “Method for identifying metalloenzyme inhibitors” (priority 2001, published 2003):
Like-named read-outs stand apart in the source and are kept apart here.

Key:
Type in all cases: biochemical
[1] = target: MMP-13CD (Homo sapiens, UniProt P45452); assay: Fluorigenic peptide-1 substrate based assay with and without acetohydroxamic acid, MMP-13CD; details: for IC50: MMP-13CD, FP1 substrate
Experimental: 50 mM HEPES buffer (pH 7.0)
2% DMSO (with or without inhibitor test compound)
Alternatively, an endpoint read can also be used to determine reaction velocity provided the initial fluorescence of the solution, as recorded before addition of enzyme, is subtracted from the final fluorescence of the reaction mixture. […] This determination was done for experiments done in the presence, and experiments done in the absence, of acetohydroxamic acid. Data were fit to the equation: […]

[2] = target: T1, MMP-2 (Homo sapiens, UniProt P08253); assay: Fluorigenic peptide-1 substrate based assay with and without acetohydroxamic acid, MMP-2; details: MMP 2FL, FP1 substrate
T1 sequence (P08253 110-660): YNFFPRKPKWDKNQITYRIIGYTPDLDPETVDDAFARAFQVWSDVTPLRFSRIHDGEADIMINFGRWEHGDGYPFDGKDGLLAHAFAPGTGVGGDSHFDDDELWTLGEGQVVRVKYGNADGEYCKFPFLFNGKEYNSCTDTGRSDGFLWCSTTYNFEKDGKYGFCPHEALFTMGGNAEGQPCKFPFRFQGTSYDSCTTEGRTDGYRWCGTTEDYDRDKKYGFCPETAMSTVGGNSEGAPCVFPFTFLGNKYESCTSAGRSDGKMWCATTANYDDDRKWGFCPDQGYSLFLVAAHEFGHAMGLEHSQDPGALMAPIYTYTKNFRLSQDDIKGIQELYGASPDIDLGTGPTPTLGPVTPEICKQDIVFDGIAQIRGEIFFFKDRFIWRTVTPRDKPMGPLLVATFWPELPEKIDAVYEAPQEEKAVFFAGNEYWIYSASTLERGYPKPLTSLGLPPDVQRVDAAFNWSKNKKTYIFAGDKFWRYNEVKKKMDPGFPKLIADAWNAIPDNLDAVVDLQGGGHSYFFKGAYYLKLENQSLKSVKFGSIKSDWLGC

[3] = target: MMP-9 (Homo sapiens, UniProt P14780); assay: Fluorigenic peptide-1 substrate based assay with and without acetohydroxamic acid, MMP-9; details: MMP 9FL, FP1 substrate
Chain of MMP-9 (P14780 94-707, species assumed): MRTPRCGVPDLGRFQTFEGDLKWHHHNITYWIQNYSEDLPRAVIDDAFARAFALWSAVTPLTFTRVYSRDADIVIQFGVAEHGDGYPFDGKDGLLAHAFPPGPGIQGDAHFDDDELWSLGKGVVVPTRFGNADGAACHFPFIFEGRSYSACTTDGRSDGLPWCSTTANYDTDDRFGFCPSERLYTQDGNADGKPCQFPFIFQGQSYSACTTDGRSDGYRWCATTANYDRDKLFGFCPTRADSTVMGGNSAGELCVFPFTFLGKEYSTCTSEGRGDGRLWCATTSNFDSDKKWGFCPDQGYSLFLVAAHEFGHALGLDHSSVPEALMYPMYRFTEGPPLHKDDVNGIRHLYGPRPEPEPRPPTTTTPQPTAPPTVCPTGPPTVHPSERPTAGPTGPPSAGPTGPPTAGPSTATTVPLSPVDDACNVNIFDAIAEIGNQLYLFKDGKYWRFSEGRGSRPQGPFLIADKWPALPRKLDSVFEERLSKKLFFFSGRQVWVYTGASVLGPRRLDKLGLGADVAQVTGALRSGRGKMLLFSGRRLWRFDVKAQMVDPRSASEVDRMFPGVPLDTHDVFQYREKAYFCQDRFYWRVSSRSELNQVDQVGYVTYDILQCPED

[4] = target: T1, MMP-2; assay: Steady-state kinetics of the mechanism of inhibition of MMP-2 (FIG. 1); details: 6 concentrations from 0 nanomolar to 600 nanomolar, 1/V0 versus 1/[S]
From the text: FIG. 1 is a graph that plots 1 over the initial velocity VO, which is the initial rate of product formation in a steady state kinetics assay, on the Y-axis versus 1 over concentration of substrate [S] used in the assay on the X-axis for inhibition of MMP-2 with N-[(3-phenylisoxazol-5-ylmethyl)-aminothiocarbonyl]-benzamide at 6 concentrations of from 0 nanomolar to 600 nanomolar.
In FIG. 1, 1 over the initial velocity VO, which is the initial rate of product formation in a steady state kinetics assay, is plotted on the Y-axis versus 1 over concentration of substrate [S] used in the assay on the X-axis for inhibition of MMP-2 with N-[(3-phenylisoxazol-5-ylmethyl)-aminothiocarbonyl]-benzamide at 6 concentrations of from 0 nanomolar to 600 nanomolar.

[5] = 0 mM acetohydroxamic acid, read-out: Without AcNHOH IC50
[6] = 15 mM acetohydroxamic acid (1 Kd), read-out: With AcNHOH IC50
[7] = about 1 Kd of acetohydroxamic acid, read-out: With AcNHOH IC50
[8] = no acetohydroxamic acid, read-out: Without AcNHOH IC50

Question: Which Kd [1] does the source give for `CC(=O)NO` [acetohydroxamic acid, reference compound] here?
Answer: Its Kd is 15000 µM.

Question: With `Cc1cc(O)nc(SCc2ccc(Cl)cc2)n1` [Entry 4] as the compound, how does the IC50 [1, 5] read?
Answer: Its IC50 is 64 µM.

Question: And the IC50 [1, 6]?
Answer: Its IC50 is 4.7 µM.

Question: Which IC50 [1, 5] does the source give for `COc1ccc(C(=O)NCc2cccnc2)cc1C(=O)NCc1cccnc1` [Entry 7] here?
Answer: Its IC50 is 27 µM.

Question: What about the IC50 [1, 6] of the same compound?
Answer: Its IC50 is 11 µM.

Question: For `COc1ccc(NC(=O)Nc2ccc3nc(C)cc(N)c3c2)cc1` [Entry 3], which IC50 [1, 5] is on record?
Answer: The IC50 was 126 µM.

Question: What about the IC50 [1, 6] of the same compound?
Answer: Its IC50 is 71 µM.

Question: For `Nc1ccc(-c2ccc(S(N)(=O)=O)cc2)cc1` [Entry 1], which IC50 [1, 5] is on record?
Answer: Its IC50 is 34 µM.

Question: And the IC50 [1, 6]?
Answer: Its IC50 is 16 µM.

Question: What does the source list for `CCOC(=O)/C=C/c1ccc(-n2ccnc2)cc1` [Entry 6]?
Answer: IC50 [1, 5]: 17 µM; IC50 [1, 6]: 14 µM

Question: Which IC50 [1, 5] does the source give for `NS(=O)(=O)c1ccc(-c2ccc([N+](=O)O)cc2)cc1` [Entry 2] here?
Answer: Its IC50 is 84 µM.

Question: What about the IC50 [1, 6] of the same compound?
Answer: The IC50 was 3.1 µM.

Question: For `O=C(NC(=S)NCc1cc(-c2ccccc2)no1)c1ccccc1` [N-[(3-phenylisoxazol-5-ylmethyl)-aminothiocarbonyl]-benzamide], which IC50 [2, 7] is on record?
Answer: Its IC50 is 0.09 µM.

Question: What about the IC50 [2, 8] of the same compound?
Answer: The IC50 was 0.9 µM.

Question: And the IC50 [3, 7]?
Answer: Its IC50 is 1.2 µM.

Question: What about the IC50 [3, 8] of the same compound?
Answer: Its IC50 is 3.1 µM.

Question: What about the “Mechanism of inhibition of MMP-2 by steady-state kinetics” value [4] of the same compound?
Answer: The value was “uncompetitive inhibitor”.

Question: `Cc1c(-c2ccc(-n3ccnc3)cc2)[nH][nH]c1=O` [Entry 5] was tested. Which IC50 [1, 5] did it give?
Answer: Its IC50 is 9.5 µM.

Question: And the IC50 [1, 6]?
Answer: The IC50 was 11 µM.
